This is an account of results in patent US7692012B2, “Vanadium compounds as inhibitors of phosphatases” (Imperial College Innovations Limited, priority 2003, dated 2010).

In experiment [1] the target is T1, MTM (Homo sapiens, UniProt Q13496).
T1 sequence (Q13496 1-603): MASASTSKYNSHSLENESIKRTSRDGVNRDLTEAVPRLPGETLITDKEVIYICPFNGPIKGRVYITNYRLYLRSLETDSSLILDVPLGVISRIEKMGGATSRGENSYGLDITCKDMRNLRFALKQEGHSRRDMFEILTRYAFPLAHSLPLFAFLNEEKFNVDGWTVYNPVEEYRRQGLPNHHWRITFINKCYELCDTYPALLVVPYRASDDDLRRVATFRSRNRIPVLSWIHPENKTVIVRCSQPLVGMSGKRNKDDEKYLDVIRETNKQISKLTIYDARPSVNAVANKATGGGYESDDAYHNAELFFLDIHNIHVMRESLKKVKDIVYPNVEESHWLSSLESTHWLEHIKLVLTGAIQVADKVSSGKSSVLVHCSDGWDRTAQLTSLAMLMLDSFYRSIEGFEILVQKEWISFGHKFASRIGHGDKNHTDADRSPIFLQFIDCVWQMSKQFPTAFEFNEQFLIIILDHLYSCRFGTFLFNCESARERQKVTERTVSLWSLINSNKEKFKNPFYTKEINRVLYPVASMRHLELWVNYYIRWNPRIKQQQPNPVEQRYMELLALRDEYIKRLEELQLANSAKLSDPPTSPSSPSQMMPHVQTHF
Put plainly: MTM IC50 (inositol phosphatase inhibition). The following applies: Compound(+V). Type of experiment: biochemical.

Experiment [2] addresses T2, PTEN (Homo sapiens, UniProt P60484).
T2 construct: GST (N); made in house; host or cells: Escherichia coli DH5 alpha
The experiment is described as follows: Malachite green phosphate release assay with PI(3,4,5)P3. The following applies: head says published data; same values as the applicant's FIG. 1 study; read-out: PTEN Published data In vitro enzyme assay confirmed by in vivo data. Type of experiment: biochemical. On the procedure:
The coding region of the DNA sequence of human PTEN was cloned into a pGEX-4T2 expression vector (Pharmacia). Protein expression was induced overnight in the Escherichia coli DH5[…] strain using 100 μM IPTG at 18 C. GST-fusion proteins were purified according to the manufacturer's manual using glutathione sepharose 4B (Pharmacia). Protein integrity and specificity were confirmed on a Western Blot using GST antibody (Novagen).
Enzyme activity of recombinant PTEN was measured with a malachite green dye based phosphate release assay (No 230, No 83). The standard assay conditions were 200 mM Tris pH 7.4, 50 ng/μl BSA, and 15 ng/μl PTEN. The synthetic lipid PI(3,4,5)P3dC16 (Cell Signals) was used as a substrate for PTEN. The lipid was dissolved in methanol/H2O and stored at −20 C. Prior to the use in these PIPase experiments, an appropriate amount of lipid was dried down and resuspended in 1% Octylglycoside (Sigma). After 10 min of sonication lipid samples were ready to be added to the enzyme assay. All assays were started by adding the enzyme into the pre-heated buffer solution, containing PI(3,4,5)P3dC16. Linear PIPase reactions were performed at 30 C for 30 min in an incubation chamber. In order to stop the enzyme reaction, 0.7 volume of colour reagent (2.3 mg/ml malachite green in 3.6 M HCl and 17 mM ammonium molybdate) was added to the enzyme solution. The mixture was allowed to develop for 20 min and the absorbance at 625 nm was measured. For all inhibitor studies inhibitor concentrations from 0.1 nM up to 500 nM were pre-incubated with PTEN and the enzyme assays were started by adding 150 μM sonicated lipid. To normalize the phosphate release a phosphate standard curve was used. All experiments were repeated in tripletts. Calculations for IC50 values were performed using GraphPad Prism.

Experiment [3] deals with T3, PTEN (Mus musculus, UniProt O08586).
T3 construct: endogenous in cells; host or cells: NIH3T3
T3 sequence (O08586 whole entry): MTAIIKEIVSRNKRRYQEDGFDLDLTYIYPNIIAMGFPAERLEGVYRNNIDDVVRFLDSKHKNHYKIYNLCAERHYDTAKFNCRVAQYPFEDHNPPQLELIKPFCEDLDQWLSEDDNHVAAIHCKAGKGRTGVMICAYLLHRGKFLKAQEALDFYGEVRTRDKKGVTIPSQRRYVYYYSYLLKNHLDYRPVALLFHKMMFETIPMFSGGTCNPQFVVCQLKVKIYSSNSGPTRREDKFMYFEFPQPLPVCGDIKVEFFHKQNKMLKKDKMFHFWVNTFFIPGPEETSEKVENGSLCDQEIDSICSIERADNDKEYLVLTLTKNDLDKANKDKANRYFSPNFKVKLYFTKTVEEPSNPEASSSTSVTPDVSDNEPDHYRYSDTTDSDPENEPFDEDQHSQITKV
The experiment is described as follows: PKB assay: dose dependence of PTEN inhibition in insulin-stimulated NIH3T3 cells (pSer473 Western blot). Type of experiment: cell-based. On the procedure: NIH3T3 cells (passage 5-20) were grown in 10% NCS D-MEM (GIBCO BRL) in 6-well plates at 37 C and 5% CO2. Starvation of the cells was carried out over 72 h in D-MEM containing 0.5% NCS. Prior use medium was changed to 0% D-MEM. UM-UC-3 cells which is a PTEN^− bladder tumour cell line (NO 195, No 196) were grown in 10% MEM (GIBCO BRL), starved with 0.5% MEM also for three days and finally incubated with serum free MEM.
UM-UC-3 cells were treated in exactly the same manner. Cell samples were analysed on Western Blots with PKB antibodies.
(§1) All cell lysate samples were loaded on 10% SDS-PAGE and transferred to PVDF membranes for PKB analysis and nitrocellulose for phospho tyrosine detection. For PKB Western Blots membranes were blocked for 1 h with 5% milk powder in TBST followed by an incubation with anti Mass PKB antibody (1:1000) or anti phospho-PKB (Ser473) antibody (1:1000) in TBST for 2 h. Finally, membranes were exposed to a horseradish peroxidase-conjugated secondary antiserum (BIORAD) (1:1000) in 5% milk powder solution for 1 h. The Western Blots were developed with ECL™ solution (Amersham). In order to detect phosphorylated tyrosine residues nitrocellulose membranes were blocked for 1 h with 2.5% milk powder, first incubated with a specific anti phosphotyrosine antibody (4G10) (1:3000) for 1 h, and finally with horseradish peroxidase-conjugated secondary anti mouse antiserum. All PKB and Phospho-Tyrosine experiments were accomplished in three independent experiments and all membranes were re-probed using a specific tubulin antibody (1:1000). Density analysis of bands took place using the public domain NIH Image V1.62 program (developed at the U.S. National Institutes of Health and available on the Internet at http://rsb.info.nih.gov/nih-image/).
(In western blotting, separated proteins are transferred to a membrane and probed.)

The test system of experiment [4] is PKB phosphorylation (pSer473) in NIH3T3 cells. The experiment is described as follows: Ly294002 dose dependence with and without bpV(pic). Type of experiment: cell-based. On the procedure: In order to find out whether bpV(pic) has an influence on Ly294002-dependent PKB inhibition we accomplished a dose response experiment applying concentrations from 0.01 up to 100 μM Ly294002 to two sets of quiescent fibroblasts and incubated for 20 min. One batch of cells were then further treated with 200 nM bpV(pic) (5 min) and all cells were finally stimulated with 10 μg/ml insulin for 15 min. Cell lysates were collected as described earlier. Calculations and graph were performed using GraphPad Prism.
as §1

For experiment [5], the system named is phosphorylation of tyrosine residues in NIH3T3 cells. Put plainly: Phosphotyrosine assay with NIH3T3 cells. Type of experiment: cell-based. The following applies: 15 min. On the procedure:
NIH3T3 cells were grown and starved as described earlier. After 72 h starvation cells were incubated for 15 min with 10% NCS, 50, 10 and […] insulin (Sigma), 10, 1, 0.1 and 0.01 μM bpV(pic) and bpV(phen), respectively. Cell lysates were prepared as described above and all samples were analysed on Western Blots using an anti phospho-tyrosine antibody (Upstate).
as §1

T2 sequence (P60484 whole entry): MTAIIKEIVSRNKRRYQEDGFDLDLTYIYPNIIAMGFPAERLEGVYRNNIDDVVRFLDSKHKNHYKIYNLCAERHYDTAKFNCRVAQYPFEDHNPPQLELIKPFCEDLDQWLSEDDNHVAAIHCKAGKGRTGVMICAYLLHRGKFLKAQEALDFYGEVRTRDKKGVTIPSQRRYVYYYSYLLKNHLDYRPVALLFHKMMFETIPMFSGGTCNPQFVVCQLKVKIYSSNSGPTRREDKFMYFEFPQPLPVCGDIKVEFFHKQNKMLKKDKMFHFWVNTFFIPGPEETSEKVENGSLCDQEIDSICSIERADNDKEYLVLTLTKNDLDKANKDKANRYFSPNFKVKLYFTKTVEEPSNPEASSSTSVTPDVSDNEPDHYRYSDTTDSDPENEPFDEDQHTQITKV

Consider “potassium bisperoxo (piconlinate) oxovanadate [bpV(pic)]”, for which the IC50 in experiment [1] is 0.239 ± 0.0042 µM; in experiment [2], 0.031 ± 0.0017 µM; in experiment [3] (NIH3T3, 5 min compound then 0.5 μg/ml insulin 15 min, read-out: IC50 (in vivo PTEN inhibition, densitometry of pSer473 PKB)) it was 0.048 µM. Besides, the “increase of PKB phosphorylation in comparison with the control” value in experiment [3] (20 nM compound, control 0.5 μg/ml insulin) is given as “about 20%”. Further, the “effect on Ly294002 induced PKB inhibition” value in experiment [4] (200 nM bpV(pic), Ly294002 0.01 to 100 μM) is “can abrogate Ly294002 induced PKB inhibition”. For the same substance, the “PKB phosphorylation at 5 μM Ly294002” value in experiment [4] (in the presence of 200 nM bpV(pic)) is “phosphorylation still occurs”. The tyrosine phosphorylation entry in experiment [5] (0.01 μM) is given as “not distinguishable to the negative control”; in experiment [5] (10 μM), “highest degree of tyrosine phosphorylation”.
